Measured values: ChEMBL document CHEMBL1132162, “Microanalysis of a selective potent anti-Helicobacter pylori compound in a Brazilian medicinal plant, Myroxylon peruiferum and the activity of analogues” (1999)
In brackets after ≈: the same amount, converted by molar mass. Activity calls are given as the source filed them. No cut-off for these calls is given here.

Columns and labels:
[1] = system: Helicobacter pylori; test: Anti-bacterial activity against Helicobacter pylori; type: functional
[2] = system: Candida albicans; test: Anti-microbial activity against yeast candida albicans at 625 ug/mL concentration; Inactive; type: functional, organism-based
[3] = system: Bacillus subtilis; test: Anti-microbial activity against gram-positive bacteria Bacillus subtilis at 625 ug/mL concentration; Inactive; type: functional, organism-based
[4] = system: Micrococcus luteus; test: Anti-microbial activity against gram-positive bacteria Micrococcus lutea at 625 ug/mL concentration; Inactive; type: functional, organism-based
[5] = system: Escherichia coli; test: Anti-microbial activity against gram-negative bacteria Escherichia coli at 625 ug/mL concentration; Inactive; type: functional, organism-based
[6] = system: Pseudomonas aeruginosa; test: Anti-microbial activity against gram-negative bacteria Pseudomonas aeruginosa at 625 ug/mL concentration; Inactive; type: functional, organism-based
[7] = system: Saccharomyces cerevisiae; test: Anti-microbial activity against yeast Saccharomyces cerevisiae at 625 ug/mL concentration; Inactive; type: functional, organism-based
[8] = system: Bacteroides fragilis; test: Anti-microbial activity against gram-positive bacteria Bacteroides fragilis at 625 ug/mL concentration; Inactive; type: functional, organism-based

| Compound | MIC [1] | other results |
| --- | --- | --- |
| COc1ccc(-c2coc3cc(OC)c(OC)cc3c2=O)cc1 | > 20 µg/mL | – |
| COc1ccc2c(=O)cc(-c3ccc(OC)c(OC)c3)oc2c1 [7,3',4'-Trimethoxyflavone] | > 20 µg/mL | – |
| COc1ccc(CC(=O)c2ccc(OC)cc2)cc1 | > 20 µg/mL | – |
| COc1ccc(-c2coc3cc(OC)ccc3c2=O)cc1 | > 20 µg/mL | – |
| COc1ccc(-c2coc3cc(OC)cc(OC)c3c2=O)cc1 [BIOCHANIN A, DIMETHYL ETHER] | > 20 µg/mL | – |
| COc1ccc(C)cc1OC | > 20 µg/mL | – |
| O=c1c(-c2ccc(O)c(O)c2)coc2cc(O)ccc12 | > 20 µg/mL | – |
| O=c1ccoc2ccccc12 [CHROMONE] | > 20 µg/mL | – |
| COc1ccc2c(c1)OCC(c1ccc(OC)c(OC)c1)C2=O (stereo not given) | > 20 µg/mL | – |

Stronger by MIC [1], values ahead:

| MIC [1] | Compound | other results |
| --- | --- | --- |
| 16 µg/mL (≈ 50.9 µM) | COc1ccc2c(c1)OC=C(c1ccc(OC)c(OC)c1)[C@@H]2O | – |
| 16 µg/mL (≈ 50.9 µM) | COc1ccc2c(c1)OC=C(c1ccc(OC)c(OC)c1)[C@H]2O | – |
| 7.8 µg/mL (≈ 25 µM) | COc1ccc2c(=O)c(-c3ccc(OC)c(OC)c3)coc2c1 | Activity [2]: inactive; Activity [3]: inactive; Activity [4]: inactive; Activity [5]: inactive; Activity [6]: inactive; Activity [7]: inactive; Activity [8]: inactive |
| 18 µg/mL (≈ 50.8 µM) | CCOc1ccc2c(=O)c(-c3ccc(OCC)c(OCC)c3)coc2c1 | – |
